Assay results taken from patent US6953800B2, “Use of selective antagonists of the α1B-adrenergic receptor for improvement of sexual dysfunction” (Recordati S.A. Chemical, priority 1999, dated 2005).
Structures can show the parent of a compound that is named as a salt.

Legend:
human α1d-adrenoceptor = molecular target: T1, human α1d-adrenoceptor (Homo sapiens, UniProt P25100); assay: [3H]Prazosin binding, cloned human α1d-adrenoceptor in CHO cell membranes; conditions: read-out: Affinity (Ki) α1d, human cloned receptors
T1 construct: expressed in transfected cells
T1 sequence (P25100 1-572): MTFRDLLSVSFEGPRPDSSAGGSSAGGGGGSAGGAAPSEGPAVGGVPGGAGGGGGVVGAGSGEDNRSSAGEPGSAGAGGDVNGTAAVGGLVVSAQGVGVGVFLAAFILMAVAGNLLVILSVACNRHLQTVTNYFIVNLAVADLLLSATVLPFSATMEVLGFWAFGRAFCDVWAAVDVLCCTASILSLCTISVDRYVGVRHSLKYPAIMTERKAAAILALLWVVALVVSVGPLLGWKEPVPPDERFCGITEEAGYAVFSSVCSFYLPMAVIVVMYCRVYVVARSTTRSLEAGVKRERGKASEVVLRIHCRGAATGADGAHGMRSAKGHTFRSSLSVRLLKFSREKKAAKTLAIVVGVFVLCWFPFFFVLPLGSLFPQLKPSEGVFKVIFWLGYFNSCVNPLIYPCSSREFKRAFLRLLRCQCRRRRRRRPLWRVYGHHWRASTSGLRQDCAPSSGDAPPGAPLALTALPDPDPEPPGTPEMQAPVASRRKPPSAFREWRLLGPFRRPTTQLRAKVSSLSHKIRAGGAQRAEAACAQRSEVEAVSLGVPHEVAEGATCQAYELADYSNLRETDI
Procedure: (§1) Binding to cloned human α1-adrenoceptor subtypes was performed in membranes from CHO cells (Chinese hamster ovary cells) transfected by electroporation with DNA expressing the gene encoding each α1-adrenoceptor subtype. […] The incubation was stopped by addition of ice-cold Tris buffer and rapid filtration through 0.2% polyethyleneimine-pretreated Whatman GF/B or Schleicher & Schuell GF52 filters.
(§2) Data are expressed as mean Ki. All patents and other references cited herein are incorporated by reference in their entirety.

human α1b-adrenoceptor = molecular target: T2, human α1b-adrenoceptor (Homo sapiens, UniProt P35368); assay: [3H]Prazosin binding, cloned human α1b-adrenoceptor in CHO cell membranes
T2 construct: expressed in transfected cells
T2 sequence (P35368 1-520): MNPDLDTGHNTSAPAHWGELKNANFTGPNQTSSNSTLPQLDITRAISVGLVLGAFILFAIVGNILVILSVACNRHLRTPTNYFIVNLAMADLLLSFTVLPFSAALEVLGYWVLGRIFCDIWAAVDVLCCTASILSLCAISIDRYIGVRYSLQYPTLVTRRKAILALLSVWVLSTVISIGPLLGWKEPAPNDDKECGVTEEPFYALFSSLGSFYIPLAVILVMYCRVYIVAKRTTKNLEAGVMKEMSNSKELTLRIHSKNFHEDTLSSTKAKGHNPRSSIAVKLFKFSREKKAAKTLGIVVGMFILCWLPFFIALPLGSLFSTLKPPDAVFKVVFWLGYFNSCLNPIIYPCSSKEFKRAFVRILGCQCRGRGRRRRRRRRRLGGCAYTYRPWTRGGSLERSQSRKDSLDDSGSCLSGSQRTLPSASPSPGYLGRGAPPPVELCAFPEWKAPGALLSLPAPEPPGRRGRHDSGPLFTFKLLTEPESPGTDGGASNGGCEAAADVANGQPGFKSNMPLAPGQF
Procedure: as §1, §2

hamster α1b-adrenoceptor = molecular target: T3, hamster α1b-adrenoceptor (Mesocricetus auratus, UniProt P18841); assay: [3H]Prazosin binding, hamster α1b-adrenoceptor in COS-7 cell membranes; conditions: COS-7 membranes, read-out: Affinity (Ki) α1b, animal cloned receptors
T3 construct: expressed in transfected cells; host or cells: COS-7 cells (transient), membranes
T3 sequence (P18841 1-515): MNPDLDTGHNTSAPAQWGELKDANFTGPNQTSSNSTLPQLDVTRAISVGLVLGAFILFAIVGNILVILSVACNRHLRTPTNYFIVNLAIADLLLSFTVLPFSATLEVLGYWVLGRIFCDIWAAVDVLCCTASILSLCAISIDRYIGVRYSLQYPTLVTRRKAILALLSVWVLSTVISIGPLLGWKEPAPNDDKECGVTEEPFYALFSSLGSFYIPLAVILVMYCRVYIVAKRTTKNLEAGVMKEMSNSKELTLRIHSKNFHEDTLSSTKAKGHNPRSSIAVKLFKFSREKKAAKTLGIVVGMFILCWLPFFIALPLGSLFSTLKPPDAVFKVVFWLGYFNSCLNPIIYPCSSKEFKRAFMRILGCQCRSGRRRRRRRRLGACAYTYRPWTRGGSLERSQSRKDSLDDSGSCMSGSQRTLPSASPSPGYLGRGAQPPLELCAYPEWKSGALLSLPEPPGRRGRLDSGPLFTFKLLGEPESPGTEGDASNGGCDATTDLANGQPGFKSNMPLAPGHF
Procedure: The incubation was stopped by addition of ice-cold Tris buffer and rapid filtration through 0.2% polyethyleneimine pretreated Whatman GF/B or Schleicher & Schuell GF52 filters.
as §2

anaesthetised dogs = assay: Intracavernous and blood pressure recording in dogs
Procedure: Male beagle dogs were anaesthetised with pentobarbital sodium (i.v. Nembutal, 35 mg/kg for induction and 4 mg/kg/h for maintenance) and intubated with an endotracheal cuffed tube to facilitate free ventilation. A collateral of the left femoral vein was cannulated with a PE catheter for infusion of the anaesthetic. Systemic BP was monitored via a Mikro-tip 6F (Millar Instruments) pressure transducer introduced into the aortic arch through the right common carotid artery. ICP was measured by means of a 20-gauge needle placed into the left or right corpus cavernosum and the same needle was used for intracavernous injection of the drugs. The needle was attached to a catheter filled with heparinized saline (25 IU/mL). […] The compounds to be tested were injected intracavernously in a volume of 0.5 ml and, after each injection, the needle was flushed with 0.5 ml of saline. The vehicles for compound dissolution were tested before the first dose of each drug. The compounds were administered in a cumulative way, with a 30-minute interval between doses. ICP (mmHg) was measured at the peak effect after the administration of the compounds. The duration of tumescence (DT, min) was measured from the beginning of the rise of ICP over its basal value up to the return to baseline. The systolic blood pressure and diastolic blood pressure (mmHg) were measured at the peak effect after the administration of compounds, in order to evaluate the effects of the compounds on BP independently from the effects on ICP. Moreover, the systolic blood pressure was measured at the time of maximal ICP value after intracavernous injection, to evaluate the ICP/BP ratios. […] The data were reported as mean ±s.e. of the mean, or percent variation (±s.e.) of the basal values.

human α1a-adrenoceptor = molecular target: T4, human α1a-adrenoceptor (Homo sapiens, UniProt P35348); assay: biochemical
T4 sequence (P35348 1-466): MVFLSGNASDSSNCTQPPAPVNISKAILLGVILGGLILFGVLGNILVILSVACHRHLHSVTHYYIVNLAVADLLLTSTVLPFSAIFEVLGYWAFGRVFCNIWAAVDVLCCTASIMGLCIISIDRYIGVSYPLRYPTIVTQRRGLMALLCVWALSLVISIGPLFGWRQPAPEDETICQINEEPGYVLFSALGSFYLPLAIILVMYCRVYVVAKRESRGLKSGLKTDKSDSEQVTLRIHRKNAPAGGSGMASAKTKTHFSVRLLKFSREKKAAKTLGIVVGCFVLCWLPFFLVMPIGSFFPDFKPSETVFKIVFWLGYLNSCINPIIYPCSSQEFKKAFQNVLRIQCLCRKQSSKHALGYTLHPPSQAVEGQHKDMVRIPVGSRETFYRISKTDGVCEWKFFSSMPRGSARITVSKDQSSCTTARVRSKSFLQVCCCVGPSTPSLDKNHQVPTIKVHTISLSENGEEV

COc1cc2nc(N3CCN(C(=O)c4ccco4)[C@@H]4CCCC[C@@H]43)nc(N)c2cc1OC [Compound B, 4-Amino-6,7-dimethoxy-2-[(4aR,8aS)-4-(2-furoyl)-cis-octahydro-1-quinoxalinyl]-quinazoline hydrochloride]
Ki (human α1d-adrenoceptor): 2.63 nM
Ki (human α1b-adrenoceptor): 0.17 nM
Ki (hamster α1b-adrenoceptor): 0.68 nM
DBP (anaesthetised dogs; 3 μg/kg intracavernous): 110.7 ± 5.5 mmHg
DT (duration of tumescence) (anaesthetised dogs; 3 μg/kg intracavernous): 2.5 ± 0.9 min
ICP (anaesthetised dogs; 3 μg/kg intracavernous): 36.7 ± 2.2 mmHg
SBP (anaesthetised dogs; 3 μg/kg intracavernous): 151.7 ± 7.3 mmHg
SBPICP (SBP at the time of maximal ICP value) (anaesthetised dogs; 3 μg/kg intracavernous): 153.3 ± 7.0 mmHg
increase of ICP in comparison with basal ICP values (anaesthetised dogs; 3 μg/kg intracavernous): 13.7 mmHg
DBP (anaesthetised dogs; 30 μg/kg intracavernous): 107.3 ± 4.2 mmHg
DT (duration of tumescence) (anaesthetised dogs; 30 μg/kg intracavernous): 4.3 ± 2.0 min
ICP (anaesthetised dogs; 30 μg/kg intracavernous): 49.3 ± 14.2 mmHg
SBP (anaesthetised dogs; 30 μg/kg intracavernous): 150.0 ± 5.9 mmHg
SBPICP (SBP at the time of maximal ICP value) (anaesthetised dogs; 30 μg/kg intracavernous): 151.0 ± 5.7 mmHg
DBP (anaesthetised dogs; 100 μg/kg intracavernous): 104.3 ± 4.2 mmHg
DT (duration of tumescence) (anaesthetised dogs; 100 μg/kg intracavernous): 4.4 ± 1.6 min
ICP (anaesthetised dogs; 100 μg/kg intracavernous): 52.7 ± 13.0 mmHg
SBP (anaesthetised dogs; 100 μg/kg intracavernous): 146.0 ± 4.8 mmHg
SBPICP (SBP at the time of maximal ICP value) (anaesthetised dogs; 100 μg/kg intracavernous): 147.3 ± 5.0 mmHg
DBP (anaesthetised dogs; 300 μg/kg intracavernous): 98.0 ± 6.9 mmHg
DT (duration of tumescence) (anaesthetised dogs; 300 μg/kg intracavernous): 3.5 ± 1.1 min
ICP (anaesthetised dogs; 300 μg/kg intracavernous): 57.3 ± 11.4 mmHg
SBP (anaesthetised dogs; 300 μg/kg intracavernous): 139.0 ± 6.6 mmHg
SBPICP (SBP at the time of maximal ICP value) (anaesthetised dogs; 300 μg/kg intracavernous): 147.3 ± 5.7 mmHg
increase of ICP in comparison with basal ICP values (anaesthetised dogs; 1000 μg/kg (1000 μg given for prazosin, phentolamine) intracavernous): 73.3 mmHg
DBP (anaesthetised dogs; 1000 μg/kg intracavernous): 81.0 ± 4.3 mmHg
ICP (anaesthetised dogs; 1000 μg/kg intracavernous): 93.3 ± 6.2 mmHg
SBP (anaesthetised dogs; 1000 μg/kg intracavernous): 121.7 ± 4.9 mmHg
SBPICP (SBP at the time of maximal ICP value) (anaesthetised dogs; 1000 μg/kg intracavernous): 135.7 ± 6.8 mmHg
duration of action compared with reference compounds (anaesthetised dogs; Compound B at the highest dose tested): higher than that of the reference compounds tested
hypotension on diastolic blood pressure (change) (anaesthetised dogs; highest dose 1000 μg/kg): −31 mmHg
effect on ICP (in words) (anaesthetised dogs; intracavernous injection): increased ICP in a dose-dependent way
Ki (human α1a-adrenoceptor): 9.43 nM
